Legend:
Treg cells = experiment: Treg pre-treated with peptide, then Treg suppression assay; format: cell-based; details: Treg incubated with peptide at 20 μM for 24 hours, washed
Source text: FOXP3 is critical for the development and function of Tregs, but also, FOXP3 can be transiently expressed in effector T cells after TCR stimulation leading to hyporesponsiveness of the effector T cell. […] We speculate that the Foxp3 inhibitory peptides may work at two levels: (i) reducing Treg function and (ii) releasing the brake of FOXP3 transient expression on effector T cells. Thus, we studied the effect of CM-1315 in T cell proliferation and IL-2 and IFN-γ production in effector T cells in response to anti-CD3 stimulation. The original P60, the optimized peptide CM-1315 and a control peptide were tested. […] We also studied the effect of the peptides directly in Tregs. Thus, freshly isolated Treg cells were pre-treated with the peptides for 24 h, and after extensive washing, they were used in conventional Treg suppression assay in coculture with effector T cells and anti-CD3 stimulation.
Supplementary Figure 4: Effect of Foxp3 inhibitory peptides in effector T cells alone. […] T cell proliferation (A) and IL-2 and IFN-γ (B and C) production in response to anti-CD3 stimulation was measured by 3H-thymidine incorporation and by ELISA respectively.
Supplementary Figure 5: Effect of FOXP3 inhibitory peptides in Treg cells. […] T cell proliferation was measured by 3H-thymidine incorporation assay. […]

[1] = tested on: FOXP3-6His (native FOXP3, 1-421); experiment: Surface plasmon resonance, peptide binding to FOXP3-coated chip; details: FOXP3 coated on chip; mutants compared with original P60
Description: Using truncated versions of FOXP3, we attempted to identify the FOXP3 domain interacting with peptide P60, described previously by or group as a FOXP3 inhibitory peptide. Thus, besides native FOXP3 we prepared the deletion mutants FOXP3 (1-331) (lacking the C-terminus of FOXP3), FOXP3 (177-421) (lacking the N-terminus) and FOXP3 (1-177) (encompassing only the N-terminus of FOXP3) (Figure 1A). They were coated on a chip for SPR experiments.
Screening of peptide binding to FOXP3 was performed by surface plasmon resonance (SPR) using ProteOn XPR36 (Bio-Rad, Hercules CA, USA) optical biosensor. Recombinant protein FOXP3-6His and the indicated truncated versions of FOXP3 were produced and purified from E-coli and immobilized covalently onto a GLM sensor chip (Bio-Rad) using sulfo-NHS and EDC (Bio-Rad) coupling reagents. After protein immobilization, chip surface was treated with ethanolamine to deactivate the excess of reactive esters. Individual peptide solutions (1–20 μM) were injected by triplicate in running buffer (Phosphate buffered saline, 0.005% (v/v) Tween 20, pH 7.4) at a flow of 30 μl/min. The interspot signal (obtained in the chip surface not immobilized with protein) was used as reference.

murine Treg cells = format: cell-based, BALB/c mice
Source text: Results shown in Figures 1–3 correspond to cell-free assays where peptides can interact directly with its corresponding protein partner. However, FOXP3 binding peptides need to enter into the cell in order to inhibit FOXP3 functions. Once we identified some mutants with higher capacity to bind FOXP3, we studied their capacity to inhibit the suppressor activity of natural Tregs in vitro. Thus, we activated effector T cells with anti-CD3 monoclonal antibody in the presence of Tregs, and analyzed the capacity of each peptide to restore T cell proliferation inhibited by Treg cells. […] Indeed, when results from the point-variant screening are represented as a heat map, it is clear that introduction of an alanine at positions 2, 5 and 11 improved activity of the original P60, whereas alanine mutations at positions 1, 7, 8, 9, 10 and 12 are detrimental (Figure 4C).
Isolation of murine CD4^+CD25^+, and CD4^+CD25^− T-cells was performed from murine spleen cells by using murine regulatory T-cell isolation kit (Miltenyi Biotec, Bergisch Gladbach, Germany) according to manufacturer's instructions. The purity of the resulting T-cell populations was confirmed to be > 95% by flow cytometry.
Inhibition of murine T regulatory cell function was measured in an in vitro assay of T-cell stimulation. CD25+ depleted spleen cells (10^5 cells/well) from BALB/c mice were stimulated in vitro with 2, 5 μg/ml of anti-mouse CD3 antibody (Pharmingen) in the presence/absence of purified Treg cells (10^4 cells/well). T-cell proliferation was measured 3 days later as previously described.

[2] = molecular target: T1, FOXP3/FOXP3 homodimerization (GST-FOXP3 and FOXP3-His) (Homo sapiens, UniProt Q9BZS1); experiment: AlphaScreen FOXP3 homodimerization assay; format: biochemical; details: GST-FOXP3 40 nM, FOXP3-His 300 nM
T1 construct: made in house; host or cells: E. coli
T1 sequence (Q9BZS1 1-421): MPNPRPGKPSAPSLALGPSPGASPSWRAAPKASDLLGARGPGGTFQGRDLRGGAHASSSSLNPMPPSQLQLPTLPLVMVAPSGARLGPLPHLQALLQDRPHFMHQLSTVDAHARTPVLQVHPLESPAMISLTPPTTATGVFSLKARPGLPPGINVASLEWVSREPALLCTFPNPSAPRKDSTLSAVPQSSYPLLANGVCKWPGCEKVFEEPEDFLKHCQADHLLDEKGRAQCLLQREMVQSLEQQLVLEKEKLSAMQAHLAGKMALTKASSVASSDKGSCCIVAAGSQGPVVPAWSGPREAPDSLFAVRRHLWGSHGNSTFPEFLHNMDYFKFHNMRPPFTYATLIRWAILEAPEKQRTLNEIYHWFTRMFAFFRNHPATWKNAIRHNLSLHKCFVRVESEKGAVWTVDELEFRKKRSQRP
Source text: AML1 is required for IL-2 and IFN-γ gene expression in conventional CD4+ T cells and its interaction with FOXP3 is needed for the immunosuppressive activity of Tregs. On the other hand, it has been described that the leucine zipper region is necessary and sufficient to mediate FOXP3 homo-dimerization, which is required for its function as a transcriptional regulator [13, 15, 20]. Thus, since P60 binds to this FOXP3 intermediate region, we analyzed if it could act as a decoy molecule to inhibit FOXP3 homodimerization or the FOXP3-AML1 heterodimerization. The capacity of FOXP3 to homodimerize was measured using the […] assay platform AlphaScreen™ (Perkin Elmer). Previous protein-cross titration experiment using different concentrations of FOXP3-6His (from 1000 to 0 nM) and GST-FOXP3 (from 300 to 0 nM) allowed us to define the optimal protein concentrations to analyze FOXP3 homodimerization (Figure 2A). […] We also tested if GST tagged FOXP3 was able to interact with AML1 protein tagged with 6 His at the N-terminus. As shown in the cross titration experiments in Figure 2C, a specific FOXP3-AML1 heterodimerization was visualized as an increase in the AlphaScreen signal.
FOXP3/AML1 heterodimerization, as well as FOXP3/FOXP3 homodimerization were analyzed by Alphascreen technology according to the manufacturer's instructions (Perkin Elmer, Benelux) as previously described.

## H-RDFQSFRKMWPFFAM-OH [P60]
Treg cells
  Inhibition of suppressive activity of pre-treated Treg (in words): not able to inhibit significantly Treg cells, although some reversal of suppression was observed
[1]
  FOXP3 binding capacity by SPR (in words): bound with high affinity
Murine Treg cells
  IC50: 38.3 µM
[2]
  Inhibition of FOXP3 homodimerization (in words): able to impair FOXP3 dimerization in a dose dependent manner

Reference: PMC5641083, “Blockage of FOXP3 transcription factor dimerization and FOXP3/AML1 interaction inhibits T regulatory cell activity: sequence optimization of a peptide inhibitor” (Oncotarget, 2017)
